# From US5614504A, “Method of making inosine monophosphate derivatives and immunopotentiating uses thereof” (The University of South Florida, priority 1995, dated 1997)
# How the values were obtained:
# [1] = tested on: delayed-type hypersensitivity response; assay: Delayed-type hypersensitivity in vivo (footpad swelling, SRBC); design: species or system mice
# Experimental: Mice were immunized by intraperitoneal administration of SRBC in graded doses of from 10^6 to 10^9 cells. […] A dose of 10^7 was chosen to immunize animals in this study.
# Four days following immunization, each mouse was challenged by injecting the left hind footpad subcutaneously with 10^8 SRBC in 50 μl phosphate buffered saline (PBS). Vehicle (50 μl PBS) was injected subcutaneously into the right hind footpad as a control. The compounds being tested were injected intraperitoneally either at the time of immunization or at the time of elicitation. After 24 hours of challenge, footpad swelling was measured as the increase in footpad thickness (left minus right) using Engineer's calipers.
# The results are expressed as increments of footpad thickness in 0.1 mmunits. The characteristics of delayed-type hypersensitivity measured in this way have been described previously in MacDonald et al. (1979). FIGS. 13 and 14 show the results of this testing.
# anti-HBs = assay: Anti-HBs responses in immunocompromised irradiated DBA/2 mice (EIA); format: in vivo; settings: for anti-HBs, Day 21: p < 0.01
# Experimental: Experimental mice were irradiated at a dose rate of 25 rad/min (1 rad=0.01 Gy) using a ^60 Coγ beam source for four minutes. Data represent the average of ten animals in each group.
# Serum specimens from immunized mice were tested for the presence of anti-HBs in an enzyme immunoassay (EIA) using the diagnostic kits of Roche Diagnostica as per the manufacturer's instructions. The anti-HBs EIA kit (Roche), has a sensitivity of <10 IU/1.
# Antibody concentration was determined with the help of calibration curves designed on the basis of the results of anti-HBs detection in standard serum panel (Roche Diagnostica) with the concentrations, as follows: 10 IU/l; 50 IU/l; 100 IU/l and 150 IU/l. The results of the two experiments were used for the calculation of mean values.
# In a second set of experiments, the effect of MIMP on the induction of a specific immune response to HBsAg in immunocompromised DBA/2 mice subjected to ionizing radiation was analyzed using the same vaccination schemes as set forth for the control DBA/2.
# [2] = tested on: Salm. typhimurium strain 415; assay: Salmonella infection mortality; format: in vivo, BALB/c mice; settings: the various treatments of MIMP; p<0.01; control about 2.5 days
# L. monocytogenes EGD = assay: Listeria infection mortality; format: in vivo, BALB/c mice; settings: for Mortality: Dead/Total: 1 dose, Day -5, day 4
# Acute toxicity (LD50) = settings: in vivo
# in vitro = in vitro ADME, Crotalus atrox; settings: rattlesnake, pH 7.3; 0.02 units 5'-nucleotidase, 37° C., 10 minutes; four experiments; read-out: Hydrolysis (%)
# Experimental: Nucleotide samples (40-60 nmoles) were incubated at 37° C. for 10 minutes with 0.02 units 5'-nucleotidase in a total volume of 100 μl containing […] HEPES, pH 7.3 and […] MgCl2. […] Phosphate was determined by the absorbance of 820 nm. Blanks consisting of nucleotide but no enzyme were tested in parallel to correct for non-enzymatic hydrolysis.
# prothymocytes = settings: Touraine et al., 1991; cited from earlier work
# [3] = tested on: spleen plaque antibody forming cells (PFC); assay: In vivo stimulation of PFC response to SRBC; design: species or system mice
# Experimental: Five days later, suspensions of spleen cells were prepared and their viability was determined by trypan blue exclusion test. Cells were suspended at 3×10^6 /ml. 0.2 ml of spleen cell suspension was mixed with 0.8 ml of 0.7% agarose and 0.2 ml of freshly washed SRBC (at 6×10^5 /ml). The mixture was immediately poured into the plate and allowed to solidify. After 60 minutes of incubation at 37° C. in a humid atmosphere of 5% CO2 in the air, the plate was flooded with 1 ml of guinea-pig complement diluted 1:5 with Hank's balanced saline. Hemolytic plaques were counted with an inverted scope using 4× magnification.
# Spleen plaque antibody forming cells (PFC) were measured at the end of the five days.
# [4] = tested on: human peripheral blood lymphocytes (HPBL); assay: Response of normal HPBL to PWM; format: cell-based; settings: PWM 0.5 μg/ml
# Experimental: In vitro: Both human peripheral blood lymphocytes (HPBL) and mouse spleen lymphocytes (MSL) were employed. Proliferation was assayed by tritiated thymidine incorporation, as described in Hadden et al. (1975) and Hadden et al. (1986). For HPBL transformation, PHA and PWM were used at 0.5 μg/ml. For MSL transformation, Con A was used at 0.5 μg/ml, phytohemagglutinin (PHA, Murex Diagnostics, Atlanta, Ga.) at 0.5 μg/ml and lipopolysaccharide endotoxin (LPS, Sigma, St. Louis, Mo.) at 10 μg/ml. When protected-IMP derivatives were added, they were added at the onset of culture at varying concentrations ranging from 0.1 μg/ml to 100 μg/ml.
# Murine splenocytes were obtained from BALB/c mice, 4-12 months old, by standard procedures (Hadden et al., 1975). They were cultured in microwell plates at 1.5×10^6 cells/ml of minimal essential media (MEM, Gibco Labs, Grand Island, N.Y.) with 5% fetal calf serum (FCS, Hyclone Labs, Logan, Utah) and tested for their proliferative response to mitogens as measured by incorporation of (^3 H) tritiated thymidine (New England Nuclear, Wilmington Del., […]; 2.5 μCi/ml) during a terminal pulse followed by liquid scintillation spectrometry. Human cells were seeded at […] and cultured for 48 hours with an 18 hour pulse with ^3 H-thymidine.
# Normal human peripheral blood lymphocytes (HPBL) were stimulated with the mitogenic agents PHA or PWM. […]
# [5] = scheme 6: Radiation + scheme N2 (HBsAg + MIMP per os)
# [6] = scheme 7: Radiation + scheme N3 (HBsAg + MIMP i.p. then per os)
smiles,measurement,setting,value
"COP(=O)(O)OC[C@H]1O[C@@H](n2cnc3c(=O)[nH]cnc32)[C@H](O)[C@@H]1O [Me-IMP, Methyl-5'-inosine-monophosphate]",delayed-type hypersensitivity response,[1]; one dose i.p. at the time of challenge,not significant
same,delayed-type hypersensitivity response,[1]; one dose i.p. at the time of immunization,significantly stimulated
same,"anti-HBs, Day 14",anti-HBs; [5],< 10 IU/1
same,"anti-HBs, Day 21",anti-HBs; [5],100 IU/1
same,"anti-HBs, Day 14",anti-HBs; [6],< 10 IU/1
same,"anti-HBs, Day 21",anti-HBs; [6],100 IU/1
same,MST,[2],about four
same,MST and survivors,"L. monocytogenes EGD; 0.1 to 10 mg/kg, combined i.p. and p.o. from five days prior to challenge",increased MST and survivors
same,mean survival time (MST) and absolute number of survivors,"L. monocytogenes EGD; by mouth and at 1 and 10 mg/kg by i.p. injection, five days prior to challenge",increased mean survival time (MST) and the absolute number of survivors
same,Mortality: Dead/Total,L. monocytogenes EGD; scheme N1 2: MIMP 1.0 per os,2/3
same,Mortality: Dead/Total,L. monocytogenes EGD; scheme N1 3: MIMP 10.0 per os,1/8
same,LD50,"Acute toxicity (LD50); ip, intraperitoneally",> 500 mg/kg
same,LD50,"Acute toxicity (LD50); po, orally",> 5000 mg/kg
same,metabolised at 10 min,in vitro,2.1%
same,differentiation markers of prothymocytes,prothymocytes,induce differentiation markers of prothymocytes
same,effect on PFC response,"[3]; 50 mg/kg of body weight ip with SRBC, PFC five days later",significantly stimulated
same,dose of optimal stimulation of PFC response,[3]; intraperitoneal,50 mg/kg of body weight
same,PFC activity at lower doses,"[3]; intraperitoneal, below 50 mg/kg",active at lower doses
same,peak dose for stimulation of PFC response,"[3]; oral, with SRBC antigen and daily for five days",50 mg/kg of body weight
same,effect on PWM response of HPBL,[4],not affected
